The target of assay [1] is T1, Dipeptidyl peptidase 1 (Homo sapiens, UniProt P53634). Put plainly: Inhibition of recombinant human DPPI using H-Gly-Arg-AMC as substrate preincubated for 30 mins followed by substrate addition measured after 60 mins by fluorescence plate reader analysis.
The target in assay [2] is T1, Dipeptidyl peptidase 1. Put plainly: Inhibition of recombinant human DPPI using H-Gly-Arg-AFC as substrate preincubated for 30 mins followed by substrate addition measured after 60 mins by fluorescence plate reader analysis.

A word on the IC50: it is the midpoint of a concentration-inhibition curve.

T1 sequence (P53634 25-134 limits assumed): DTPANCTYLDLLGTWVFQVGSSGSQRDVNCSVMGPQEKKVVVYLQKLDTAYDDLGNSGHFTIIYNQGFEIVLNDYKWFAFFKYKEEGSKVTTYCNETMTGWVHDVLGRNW
T1 sequence (P53634 231-394 limits assumed): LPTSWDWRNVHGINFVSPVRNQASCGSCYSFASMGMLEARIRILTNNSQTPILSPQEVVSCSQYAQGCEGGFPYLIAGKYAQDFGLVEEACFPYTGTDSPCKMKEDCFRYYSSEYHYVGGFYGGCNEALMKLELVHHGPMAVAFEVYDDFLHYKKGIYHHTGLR
T1 sequence (P53634 395-463 limits assumed): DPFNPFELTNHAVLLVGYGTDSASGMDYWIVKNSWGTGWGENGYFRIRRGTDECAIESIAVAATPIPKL

For the compound `N#C[C@H](Cc1ccc(-c2ccccc2)cc1)NC(=O)[C@@H]1C[C@@H](O)CN1`, the concentration for half-maximal inhibition (IC50) in assay [1] was 0.158 µM.
On to `N#Cc1ccc(-c2ccc(C[C@@H](C#N)NC(=O)[C@@H]3CCCN3)cc2)cc1`, for which the IC50 in assay [2] was 0.0501 µM.
For `N#Cc1ccc(-c2ccc(C[C@@H](C#N)NC(=O)[C@@H]3C[C@@H](O)CN3)cc2)cc1`, in assay [1], the IC50 was 0.0501 µM.
In the case of `N#Cc1ccc(-c2ccc(C[C@@H](C#N)NC(=O)[C@@H]3C[C@@H](F)CN3)cc2)cc1`, the IC50 in assay [2] was 0.631 µM.
`N#Cc1ccc(-c2ccc(C[C@@H](C#N)NC(=O)[C@@H]3CC(F)(F)CN3)cc2)cc1`: the IC50 in assay [2] is 0.0794 µM.
`CS[C@@H]1CN[C@H](C(=O)N[C@H](C#N)Cc2ccc(-c3ccc(C#N)cc3)cc2)C1`: in assay [2], the half-inhibitory concentration (IC50) was 0.000398 µM.
In the case of `N#Cc1ccc(-c2ccc(C[C@@H](C#N)NC(=O)[C@@H]3C[C@H](O)CN3)cc2)cc1`, in assay [2], the IC50 is 0.00631 µM.
The same measure, in the same setting: the result for `N#Cc1ccc(-c2ccc(C[C@@H](C#N)NC(=O)[C@@H]3C[C@H](F)CN3)cc2)cc1` reads 0.00158 µM.

Values taken from ChEMBL document CHEMBL4304796, “DPP1 Inhibitors: Exploring the Role of Water in the S2 Pocket of DPP1 with Substituted Pyrrolidines” (ACS Med Chem Lett, 2019).
